Data published in patent publication US20050123912A1, “Nucleic-acid associated proteins” (priority 2002, published 2005).

Columns and labels:
[1] = tested on: SEQ ID NO:64 expression in human C3A liver cells; assay: Microarray expression of SEQ ID NO:64 in C3A liver cell cultures treated with steroids; assay type: cell-based; conditions: early confluent human C3A liver cells, 1 μM, 10 μM, and 100 μM for 1, 3, and 6 hours, compared to untreated cells
Protocol: Total RNA is isolated from tissue samples using the guanidinium thiocyanate method and poly(A)^+ RNA is purified using the oligo-(dT) cellulose method. Each poly(A)^+ RNA sample is reverse transcribed using MMLV reverse-transcriptase, 0.05 pg/μl oligo-(dT) primer (21mer), 1× first strand buffer, 0.03 units/μl RNase inhibitor, 500 μM dATP, 500 μM dGTP, 500 μM dTTP, 40 μM dCTP, 40 μM dCTP-Cy3 (BDS) or dCTP-Cy5 (Amersham Biosciences). The reverse transcription reaction is performed in a 25 ml volume containing 200 ng poly(A)^+ RNA with GEMBRIGHT kits (Incyte). Specific control poly(A)^+ RNAs are synthesized by in vitro transcription from non-coding yeast genomic DNA. After incubation at 37° C. for 2 hr, each reaction sample (one with Cy3 and another with Cy5 labeling) is treated with 2.5 ml of 0.5M sodium hydroxide and incubated for 20 minutes at 85° C. to the stop the reaction and degrade the RNA. Samples are purified using two successive CHROMA SPIN 30 gel filtration spin columns (Clontech, Palo Alto Calif.) and after combining, both reaction samples are ethanol precipitated using 1 ml of glycogen (1 mg/ml), 60 ml sodium acetate, and 300 ml of 100% ethanol. The sample is then dried to completion using a SpeedVAC (Savant Instruments Inc., Holbrook N.Y.) and resuspended in 14 μl 5×SSC/0.2% SDS.
Sequences of the present invention are used to generate array elements. Each array element is amplified from bacterial cells containing vectors with cloned cDNA inserts. PCR amplification uses primers complementary to the vector sequences flanking the cDNA insert. Array elements are amplified in thirty cycles of PCR from an initial quantity of 1-2 ng to a final quantity greater than 5 μg. Amplified array elements are then purified using [sequence]-400 (Amersham Biosciences). […]
Reporter-labeled hybridization complexes are detected with a microscope equipped with an Innova 70 mixed gas 10 W laser (Coherent, Inc., Santa Clara Calif.) capable of generating spectral lines at 488 nm for excitation of Cy3 and at 632 nm for excitation of Cy5. […]

[2] = relative to progesterone; cited from earlier work
[3] = intranasal; relative to hydrocortisone; cited from earlier work
[4] = tested on: SEQ ID NO:61 expression in human peripheral blood mononuclear cells (PBMCs); assay: Microarray expression of SEQ ID NO:61 in PBMCs treated with acetaminophen; assay type: cell-based; conditions: human PBMCs treated with acetaminophen compared to untreated cells
Excerpt: Therefore, SEQ ID NO:61 is useful in disease staging and in diagnostic assays for immune disorders.

Molecule	expression of SEQ ID NO:64 [1]	pharmacological activity greater than progesterone [2]	anti-inflammatory and vasoconstrictive effects greater than those produced by hydrocortisone [3] [times]	decrease in expression of SEQ ID NO:61 [4]
6α-methyl-17-hydroxyprogesterone [medroxyprogesterone]	decreased expression	about 15 times		
C[C@]12C=CC(=O)C=C1CC[C@@H]1[C@@H]2C(=O)C[C@@]2(C)[C@H]1CC[C@]2(O)C(=O)CO [prednisone]	decreased expression			
C[C@H]1C[C@H]2[C@@H]3CCC4=CC(=O)C=C[C@]4(C)[C@@]3(Cl)[C@@H](O)C[C@]2(C)[C@@]1(O)C(=O)CO [beclomethasone]	decreased expression		5000	
CC(=O)Nc1ccc(O)cc1 [acetaminophen]				two-fold
